Earlier results in patent publication US20070197640A1, “Certain chemical entities, compositions, and methods” (Cytokinetics, Inc., priority 2005, published 2007).

Test system: A549 cells
Details: data provided by National Cancer Institute, Developmental Therapeutic Program
For `O=c1[nH]cc(F)c(=O)[nH]1` [5-fluorouracil], the GI50 is listed as 1000 nM.
For `COc1cccc2c1C(=O)c1c(O)c3c(c(O)c1C2=O)C[C@@](O)(C(=O)CO)C[C@@H]3O[C@H]1C[C@H](N)[C@H](O)[C@H](C)O1` [doxorubicin], the GI50 is given as 63 nM.
For `NC(=O)NO` [hydroxyurea], the GI50 is given as 500000 nM.
In the case of `CC(=O)O[C@H]1C(=O)[C@@]2(C)[C@H]([C@H](OC(=O)c3ccccc3)[C@]3(O)C[C@H](OC(=O)[C@H](O)[C@@H](NC(=O)c4ccccc4)c4ccccc4)C(C)=C1C3(C)C)[C@]1(OC(C)=O)CO[C@@H]1C[C@@H]2O` [paclitaxel], the GI50 is listed as 4 nM.
